In one test the target is human GLP-1R (Homo sapiens, UniProt P43220). Briefly: [125I]-GLP-1 binding (SPA), human GLP-1 receptor. Set-up: expressed in transfected cells; crude membranes. Conditions: read-out: hGLP1R Ki, (nM) (SEM, n). A digest of the protocol:
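Assay buffer: HEPES 25 mM, pH 7.4, CaCl2 2.5 mM, MgCl2 1 mM, with EDTA-free protease inhibitors. Receptor came from crude cell membranes prepared by homogenization and centrifugation at 4° C. IC50s came from four-parameter fits (maximum, minimum, IC50, Hill slope) and were expressed as Ki geometric means with SEM.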

For another test, the target named is T1, human GIP receptor (Homo sapiens, UniProt P48546).
T1 construct: expressed in transfected cells; crude membranes
T1 sequence (P48546 22-466): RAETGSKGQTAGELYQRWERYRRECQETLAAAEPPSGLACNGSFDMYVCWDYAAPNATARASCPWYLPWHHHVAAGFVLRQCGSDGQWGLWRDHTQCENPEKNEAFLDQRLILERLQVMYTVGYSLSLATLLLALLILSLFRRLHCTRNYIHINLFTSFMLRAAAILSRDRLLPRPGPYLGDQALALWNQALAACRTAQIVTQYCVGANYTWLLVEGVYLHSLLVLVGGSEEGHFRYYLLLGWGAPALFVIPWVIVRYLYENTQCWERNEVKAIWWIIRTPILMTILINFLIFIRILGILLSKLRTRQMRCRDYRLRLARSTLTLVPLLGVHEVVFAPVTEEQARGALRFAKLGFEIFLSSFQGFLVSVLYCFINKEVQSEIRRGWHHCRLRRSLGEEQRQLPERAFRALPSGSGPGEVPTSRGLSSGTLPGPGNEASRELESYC
Briefly: [125I]-GIP binding (SPA), human GIP receptor. Conditions: read-out: hGIPR Ki, nM (SEM, n).

Test [1] has as its target human GLP-1 receptor (GLP-1R) (Homo sapiens, UniProt P43220). Briefly: cAMP pharmacological functional assay in presence of casein, hGLP-1R. The test is classed as cell-based. As to conditions: HEK293 cells expressing hGLP-1R, 0.1% Casein, geometric mean; read-out: hGLP1R cAMP Rel EC50 nM (SEM, n).
Test [2] addresses T2, gastric inhibitory peptide receptor (GIPR) (Homo sapiens, UniProt P48546).
T2 sequence (P48546 22-466): T1 sequence (P48546 22-466)
Briefly: cAMP pharmacological functional assay in presence of casein, hGIPR. Format: cell-based. Conditions: HEK293 cells expressing hGIPR, 0.1% Casein, geometric mean; read-out: hGIPR cAMP Rel EC50 nM (SEM, n).

The next test concerns the target T3, human Gcg receptor (Homo sapiens, UniProt P47871).
T3 construct: expressed in transfected cells; crude membranes
Briefly: [125I]-Glucagon binding (SPA), human Gcg receptor. Conditions: read-out: hGLcgR Ki, nM (SEM, n). A digest of the protocol: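 Crude membranes from cells expressing the receptor, prepared by hypotonic lysis in 50 mM Tris HCl pH 7.5 with protease inhibitors, homogenization and differential centrifugation, were used in a WGA-bead SPA. Binding buffer: 25 mM HEPES pH 7.4, 2.5 mM CaCl2, 1 mM MgCl2, bacitracin, Tween-20.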

Numbered stars: 1 amine (or outer) side, 2 acyl side, 3 side chain; on linkers, the order of the positions; unused ones are H or OH. Square brackets hold non-standard residues; d marks the D form. Side chains are listed from the residue outwards. Peptide text beside a SMILES is read from it. * marks the point of attachment. C20 diacid = O=C(O)CCCCCCCCCCCCCCCCCCC(=O)*; C18 diacid = O=C(O)CCCCCCCCCCCCCCCCC(=O)*; αMePhe(2-F) = C[C@](N)(Cc1ccccc1F)C(=O)O; γGlu = O=C(O)[C@H](CCC(=O)[*:2])N[*:1]; αMeY = C[C@](N)(Cc1ccc(O)cc1)C(=O)O; 3Pal = N[C@@H](Cc1cccnc1)C(=O)O; 4Pal = N[C@@H](Cc1ccncc1)C(=O)O; αMeL = CC(C)C[C@](C)(N)C(=O)O; Orn = NCCC[C@H](N)C(=O)O; AEEA = NCCOCCOCC(=O)O; Aib = CC(C)(N)C(=O)O

T3 sequence (P47871 26-477): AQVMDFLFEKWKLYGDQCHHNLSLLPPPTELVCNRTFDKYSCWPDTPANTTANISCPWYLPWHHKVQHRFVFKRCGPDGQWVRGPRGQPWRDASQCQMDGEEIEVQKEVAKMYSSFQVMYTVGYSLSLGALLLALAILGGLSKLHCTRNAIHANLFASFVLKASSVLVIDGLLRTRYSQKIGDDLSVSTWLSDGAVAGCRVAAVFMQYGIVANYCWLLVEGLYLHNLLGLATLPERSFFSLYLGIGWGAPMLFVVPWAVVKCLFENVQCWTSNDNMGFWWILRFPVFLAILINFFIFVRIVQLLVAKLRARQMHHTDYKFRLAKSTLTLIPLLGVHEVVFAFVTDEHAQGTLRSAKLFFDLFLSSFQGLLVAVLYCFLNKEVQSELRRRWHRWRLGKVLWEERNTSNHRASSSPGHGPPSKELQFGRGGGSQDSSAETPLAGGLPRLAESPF
Chain of human GLP-1 receptor (GLP-1R) (P43220 24-463): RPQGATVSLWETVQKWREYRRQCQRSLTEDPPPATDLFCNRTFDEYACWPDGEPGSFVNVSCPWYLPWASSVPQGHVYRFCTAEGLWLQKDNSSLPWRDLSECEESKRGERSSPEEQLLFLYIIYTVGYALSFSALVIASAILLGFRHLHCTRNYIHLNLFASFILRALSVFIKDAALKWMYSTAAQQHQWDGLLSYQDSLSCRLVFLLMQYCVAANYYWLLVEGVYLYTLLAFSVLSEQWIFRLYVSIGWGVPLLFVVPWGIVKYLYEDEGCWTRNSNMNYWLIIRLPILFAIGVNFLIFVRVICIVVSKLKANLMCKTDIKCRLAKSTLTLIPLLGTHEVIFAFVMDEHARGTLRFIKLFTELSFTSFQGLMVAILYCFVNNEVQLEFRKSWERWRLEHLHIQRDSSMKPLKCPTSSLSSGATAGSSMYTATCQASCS
Chain of human GLP-1R (P43220 24-463): as above

A word on the Ki: it is the equilibrium dissociation constant of an inhibitor or competing ligand from its target. The term EC50 denotes the concentration that produces a half-maximal response. For `CC[C@H](C)[C@H](NC(=O)[C@H](CC(C)C)NC(=O)[C@](C)(Cc1ccc(O)cc1)NC(=O)[C@@H](CCC(=O)O)NC(=O)[C@@H](NC(=O)[C@H](Cc1ccccc1)NC(=O)[C@@H](NC(=O)C(C)(C)NC(=O)[C@H](CCC(N)=O)NC(=O)[C@H](C)NC(=O)[C@H](CCCCNC(=O)COCCOCCNC(=O)COCCOCCNC(=O)CC[C@H](NC(=O)CCCCCCCCCCCCCCCCC(=O)O)C(=O)O)NC(=O)[C@H](CCCN)NC(=O)[C@H](CC(=O)O)NC(=O)[C@H](CC(C)C)NC(=O)[C@](C)(CC(C)C)NC(=O)[C@@H](NC(=O)[C@H](CO)NC(=O)[C@H](Cc1ccncc1)NC(=O)[C@H](CC(=O)O)NC(=O)[C@H](CO)NC(=O)[C@@H](NC(=O)[C@](C)(Cc1ccccc1F)NC(=O)[C@@H](NC(=O)CNC(=O)[C@H](CCC(=O)O)NC(=O)C(C)(C)NC(=O)[C@@H](N)Cc1ccc(O)cc1)[C@@H](C)O)[C@@H](C)O)[C@@H](C)CC)[C@@H](C)O)[C@@H](C)CC)C(=O)N[C@@H](CCC(=O)O)C(=O)NCC(=O)NCC(=O)N1CCC[C@H]1C(=O)N[C@@H](CO)C(=O)N[C@@H](CO)C(=O)NCC(=O)N[C@@H](C)C(=O)N1CCC[C@H]1C(=O)N1CCC[C@H]1C(=O)N1CCC[C@H]1C(=O)N[C@@H](CO)C(N)=O` [Example 239] (H-Y[Aib]EGT[αMePhe(2-F)]TSD[4Pal]SI[αMeL]LD[Orn]K([AEEA-AEEA-γGlu-C18 diacid])AQ[Aib]TFI[dE][αMeY]LIEGGPSSGAPPPS-NH2; N-terminus assumed), the Ki on human GLP-1R was 2.71 nM; at human GIP receptor, 0.101 nM; at human Gcg receptor, 596 nM. In addition, the figures for the EC50 in test [1] and in test [2] were 0.0376 nM and 0.0353 nM, respectively.
The like results for `CC[C@H](C)[C@H](NC(=O)[C@H](CC(C)C)NC(=O)[C@H](Cc1ccc(O)cc1)NC(=O)[C@H](CCC(=O)O)NC(=O)[C@@H](NC(=O)[C@H](Cc1ccccc1)NC(=O)[C@H](Cc1c[nH]cn1)NC(=O)C(C)(C)NC(=O)[C@H](CCC(N)=O)NC(=O)[C@H](C)NC(=O)[C@H](CCCCNC(=O)COCCOCCNC(=O)COCCOCCNC(=O)CC[C@H](NC(=O)CCCCCCCCCCCCCCCCC(=O)O)C(=O)O)NC(=O)[C@H](CCCCN)NC(=O)[C@H](CC(=O)O)NC(=O)[C@H](CC(C)C)NC(=O)[C@H](CC(C)C)NC(=O)[C@@H](NC(=O)[C@H](CO)NC(=O)[C@H](Cc1ccc(O)cc1)NC(=O)[C@H](CC(=O)O)NC(=O)[C@H](CO)NC(=O)[C@@H](NC(=O)[C@H](Cc1ccccc1)NC(=O)[C@@H](NC(=O)CNC(=O)[C@H](CCC(=O)O)NC(=O)C(C)(C)NC(=O)[C@@H](N)Cc1ccc(O)cc1)[C@@H](C)O)[C@@H](C)O)[C@@H](C)CC)[C@@H](C)CC)C(=O)N[C@@H](CCC(=O)O)C(=O)NCC(=O)NCC(=O)N1CCC[C@H]1C(=O)N[C@@H](CO)C(=O)N[C@@H](CO)C(=O)NCC(N)=O` [Example 322] (H-Y[Aib]EGTFTSDYSILLDKK([AEEA-AEEA-γGlu-C18 diacid])AQ[Aib]HFIEYLIEGGPSSG-NH2) were, in that order, 2.31 nM, 0.175 nM, 1030 nM, 0.711 nM and 0.146 nM.
The like results for `CC[C@H](C)[C@H](NC(=O)[C@H](Cc1ccccc1)NC(=O)[C@H](C)NC(=O)C(C)(C)NC(=O)[C@H](CCC(N)=O)NC(=O)[C@H](C)NC(=O)[C@H](CCCCNC(=O)COCCOCCNC(=O)COCCOCCNC(=O)CC[C@H](NC(=O)CCCCCCCCCCCCCCCCCCC(=O)O)C(=O)O)NC(=O)[C@H](CO)NC(=O)[C@H](CC(=O)O)NC(=O)[C@H](CC(C)C)NC(=O)[C@](C)(CC(C)C)NC(=O)[C@@H](NC(=O)[C@H](CO)NC(=O)[C@H](Cc1ccc(O)cc1)NC(=O)[C@H](CC(=O)O)NC(=O)[C@H](CO)NC(=O)[C@@H](NC(=O)[C@H](Cc1ccccc1)NC(=O)[C@@H](NC(=O)CNC(=O)[C@H](CCC(=O)O)NC(=O)C(C)(C)NC(=O)[C@@H](N)Cc1ccc(O)cc1)[C@@H](C)O)[C@@H](C)O)[C@@H](C)CC)C(=O)N[C@@H](CCC(=O)O)C(=O)N[C@@H](Cc1ccc(O)cc1)C(=O)N[C@@H](CC(C)C)C(=O)N[C@@H](CC(C)C)C(=O)N[C@@H](CCC(=O)O)C(=O)NCC(=O)NCC(=O)N1CCC[C@H]1C(=O)N[C@@H](CO)C(=O)N[C@@H](CO)C(=O)NCC(=O)N[C@@H](C)C(=O)N1CCC[C@H]1C(=O)N1CCC[C@H]1C(=O)N1CCC[C@H]1C(=O)N[C@@H](CO)C(N)=O` [Example 61] (H-Y[Aib]EGTFTSDYSI[αMeL]LDSK([AEEA-AEEA-γGlu-C20 diacid])AQ[Aib]AFIEYLLEGGPSSGAPPPS-NH2) were, in that order, 11.1 nM, 0.102 nM, 110 nM, 0.371 nM and 0.0739 nM.
In the same order, the values of `CC[C@H](C)[C@H](NC(=O)[C@H](CC(C)C)NC(=O)[C@H](Cc1ccc(O)cc1)NC(=O)[C@H](CCC(=O)O)NC(=O)[C@@H](NC(=O)[C@H](Cc1ccccc1)NC(=O)[C@H](CCC(=O)O)NC(=O)C(C)(C)NC(=O)[C@H](CCC(N)=O)NC(=O)[C@H](C)NC(=O)[C@H](CCCCNC(=O)COCCOCCNC(=O)COCCOCCNC(=O)CC[C@H](NC(=O)CCCCCCCCCCCCCCCCCCC(=O)O)C(=O)O)NC(=O)[C@H](CCC(=O)O)NC(=O)[C@H](CC(=O)O)NC(=O)[C@H](CC(C)C)NC(=O)[C@](C)(CC(C)C)NC(=O)[C@@H](NC(=O)[C@H](CO)NC(=O)[C@H](Cc1cccnc1)NC(=O)[C@H](CC(=O)O)NC(=O)[C@H](CO)NC(=O)[C@@H](NC(=O)[C@](C)(Cc1ccccc1F)NC(=O)[C@@H](NC(=O)CNC(=O)[C@H](CCC(=O)O)NC(=O)C(C)(C)NC(=O)[C@@H](N)Cc1ccc(O)cc1)[C@@H](C)O)[C@@H](C)O)[C@@H](C)CC)[C@@H](C)CC)C(=O)N[C@@H](CCC(=O)O)C(=O)NCC(=O)NCC(=O)N1CCC[C@H]1C(=O)N[C@@H](CO)C(=O)N[C@@H](CO)C(=O)NCC(=O)N[C@@H](C)C(=O)N1CCC[C@H]1C(=O)N1CCC[C@H]1C(=O)N1CCC[C@H]1C(=O)N[C@@H](CO)C(N)=O` [Example 157] (H-Y[Aib]EGT[αMePhe(2-F)]TSD[3Pal]SI[αMeL]LDEK([AEEA-AEEA-γGlu-C20 diacid])AQ[Aib]EFIEYLIEGGPSSGAPPPS-NH2) are 8.97 nM, 0.0937 nM, 179 nM, 0.0431 nM and 0.0453 nM.
For the molecule `CC[C@H](C)[C@H](NC(=O)[C@H](CCCCN)NC(=O)[C@H](CC(=O)O)NC(=O)[C@H](CC(C)C)NC(=O)[C@H](CC(C)C)NC(=O)[C@@H](NC(=O)[C@H](CO)NC(=O)[C@H](Cc1ccc(O)cc1)NC(=O)[C@H](CC(=O)O)NC(=O)[C@H](CO)NC(=O)[C@@H](NC(=O)[C@H](Cc1ccccc1)NC(=O)[C@@H](NC(=O)CNC(=O)[C@H](CCC(=O)O)NC(=O)C(C)(C)NC(=O)[C@@H](N)Cc1ccc(O)cc1)[C@@H](C)O)[C@@H](C)O)[C@@H](C)CC)C(=O)N[C@@H](C)C(=O)N[C@@H](CCC(N)=O)C(=O)NC(C)(C)C(=O)N[C@@H](C)C(=O)N[C@@H](Cc1ccccc1)C(=O)N[C@H](C(=O)N[C@@H](CCC(=O)O)C(=O)N[C@@H](Cc1ccc(O)cc1)C(=O)N[C@@H](CC(C)C)C(=O)N[C@H](C(=O)N[C@@H](CCC(=O)O)C(=O)NCC(=O)NCC(=O)N1CCC[C@H]1C(=O)N[C@@H](CO)C(=O)N[C@@H](CO)C(=O)NCC(=O)N[C@@H](C)C(=O)N1CCC[C@H]1C(=O)N1CCC[C@H]1C(=O)N1CCC[C@H]1C(=O)N[C@@H](CCCCNC(=O)COCCOCCNC(=O)COCCOCCNC(=O)CC[C@H](NC(=O)CCCCCCCCCCCCCCCCCCC(=O)O)C(=O)O)C(N)=O)[C@@H](C)CC)[C@@H](C)CC` [Example 48] (H-Y[Aib]EGTFTSDYSILLDKIAQ[Aib]AFIEYLIEGGPSSGAPPPK([AEEA-AEEA-γGlu-C20 diacid])-NH2; N-terminus assumed), the results for the Ki on human GLP-1R, at human GIP receptor and at human Gcg receptor were 15.7 nM, 0.074 nM and 111 nM, respectively. The results for the concentration giving a half-maximal response (EC50) in test [1] and in test [2] were 0.691 nM and 0.168 nM, respectively.
